# Measurements published in PubChem BioAssay (NCI).
#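 Method: 48-hour compound exposure of cells in 96-well plates, five concentrations, linear interpolation of endpoints. The concentration for full growth arrest is given as TGI.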
# System: SK-MEL-2 melanoma
# Assay: DTP human tumour cell line panel, 48 h
row,Structure (SMILES),TGI [µM]
1,CCOc1ccccc1/C=C(/C#N)C(N)=O,> 100
2,COc1cccc(-c2nnc3c(-c4ccccc4)nc4ccccc4n23)c1,44.3
3,c1ccc(COC2NCCN2Cc2ccccc2)cc1 (configuration not stated),> 100
4,NC(=O)C1CCCNC1 (configuration not stated),> 100

# System: SK-MEL-28 melanoma
# Assay: DTP human tumour cell line panel, 48 h
row,Structure (SMILES),TGI [µM]
1,C#CC1(O)C(COP(=O)(O)OC(COCCCCCCCCCCCCCCCCCC)COP(=O)(O)OCC2OC(n3cc(C)c(=O)[nH]c3=O)CC2N=[N+]=[N-])OC(n2ccc(N)nc2=O)C1O (configuration not stated),22.4
2,CCOc1ccccc1/C=C(/C#N)C(N)=O,> 100
3,COc1cccc(-c2nnc3c(-c4ccccc4)nc4ccccc4n23)c1,> 100
4,c1ccc(COC2NCCN2Cc2ccccc2)cc1 (configuration not stated),> 100
5,NC(=O)C1CCCNC1 (configuration not stated),> 100

# System: SK-MEL-5 melanoma
# Assay: DTP human tumour cell line panel, 48 h
row,Structure (SMILES),TGI [µM]
1,C#CC1(O)C(COP(=O)(O)OC(COCCCCCCCCCCCCCCCCCC)COP(=O)(O)OCC2OC(n3cc(C)c(=O)[nH]c3=O)CC2N=[N+]=[N-])OC(n2ccc(N)nc2=O)C1O (configuration not stated),> 100
2,CCOc1ccccc1/C=C(/C#N)C(N)=O,> 100
3,COc1cccc(-c2nnc3c(-c4ccccc4)nc4ccccc4n23)c1,77.6
4,c1ccc(COC2NCCN2Cc2ccccc2)cc1 (configuration not stated),> 100
5,NC(=O)C1CCCNC1 (configuration not stated),> 100

# System: SK-OV-3 ovarian
# Assay: DTP human tumour cell line panel, 48 h
row,Structure (SMILES),TGI [µM]
1,C#CC1(O)C(COP(=O)(O)OC(COCCCCCCCCCCCCCCCCCC)COP(=O)(O)OCC2OC(n3cc(C)c(=O)[nH]c3=O)CC2N=[N+]=[N-])OC(n2ccc(N)nc2=O)C1O (configuration not stated),29.7
2,CCOc1ccccc1/C=C(/C#N)C(N)=O,> 100
3,COc1cccc(-c2nnc3c(-c4ccccc4)nc4ccccc4n23)c1,> 100
4,c1ccc(COC2NCCN2Cc2ccccc2)cc1 (configuration not stated),> 100
5,NC(=O)C1CCCNC1 (configuration not stated),> 100

# System: SN12C renal
# Assay: DTP human tumour cell line panel, 48 h
row,Structure (SMILES),TGI [µM]
1,C#CC1(O)C(COP(=O)(O)OC(COCCCCCCCCCCCCCCCCCC)COP(=O)(O)OCC2OC(n3cc(C)c(=O)[nH]c3=O)CC2N=[N+]=[N-])OC(n2ccc(N)nc2=O)C1O (configuration not stated),> 100
2,CCOc1ccccc1/C=C(/C#N)C(N)=O,> 100
3,COc1cccc(-c2nnc3c(-c4ccccc4)nc4ccccc4n23)c1,> 100
4,c1ccc(COC2NCCN2Cc2ccccc2)cc1 (configuration not stated),> 100
5,NC(=O)C1CCCNC1 (configuration not stated),> 100

# System: SNB-19 CNS
# Assay: DTP human tumour cell line panel, 48 h
row,Structure (SMILES),TGI [µM]
1,C#CC1(O)C(COP(=O)(O)OC(COCCCCCCCCCCCCCCCCCC)COP(=O)(O)OCC2OC(n3cc(C)c(=O)[nH]c3=O)CC2N=[N+]=[N-])OC(n2ccc(N)nc2=O)C1O (configuration not stated),17.3
2,CCOc1ccccc1/C=C(/C#N)C(N)=O,> 100
3,COc1cccc(-c2nnc3c(-c4ccccc4)nc4ccccc4n23)c1,> 100
4,c1ccc(COC2NCCN2Cc2ccccc2)cc1 (configuration not stated),> 100
5,NC(=O)C1CCCNC1 (configuration not stated),> 100

# System: SNB-75 CNS
# Assay: DTP human tumour cell line panel, 48 h
row,Structure (SMILES),TGI [µM]
1,C#CC1(O)C(COP(=O)(O)OC(COCCCCCCCCCCCCCCCCCC)COP(=O)(O)OCC2OC(n3cc(C)c(=O)[nH]c3=O)CC2N=[N+]=[N-])OC(n2ccc(N)nc2=O)C1O (configuration not stated),22.3
2,CCOc1ccccc1/C=C(/C#N)C(N)=O,> 100
3,c1ccc(COC2NCCN2Cc2ccccc2)cc1 (configuration not stated),> 100
4,NC(=O)C1CCCNC1 (configuration not stated),> 100

# System: SR leukemia
# Assay: DTP human tumour cell line panel, 48 h
row,Structure (SMILES),TGI [µM]
1,C#CC1(O)C(COP(=O)(O)OC(COCCCCCCCCCCCCCCCCCC)COP(=O)(O)OCC2OC(n3cc(C)c(=O)[nH]c3=O)CC2N=[N+]=[N-])OC(n2ccc(N)nc2=O)C1O (configuration not stated),> 86.3
2,CCOc1ccccc1/C=C(/C#N)C(N)=O,> 100
3,COc1cccc(-c2nnc3c(-c4ccccc4)nc4ccccc4n23)c1,> 54.8
4,c1ccc(COC2NCCN2Cc2ccccc2)cc1 (configuration not stated),> 100
5,NC(=O)C1CCCNC1 (configuration not stated),> 100

# System: SW-620 colon
# Assay: DTP human tumour cell line panel, 48 h
row,Structure (SMILES),TGI [µM]
1,C#CC1(O)C(COP(=O)(O)OC(COCCCCCCCCCCCCCCCCCC)COP(=O)(O)OCC2OC(n3cc(C)c(=O)[nH]c3=O)CC2N=[N+]=[N-])OC(n2ccc(N)nc2=O)C1O (configuration not stated),33.4
2,CCOc1ccccc1/C=C(/C#N)C(N)=O,> 100
3,COc1cccc(-c2nnc3c(-c4ccccc4)nc4ccccc4n23)c1,> 100
4,c1ccc(COC2NCCN2Cc2ccccc2)cc1 (configuration not stated),> 100
5,NC(=O)C1CCCNC1 (configuration not stated),> 100

# System: T-47D breast
# Assay: DTP human tumour cell line panel, 48 h
row,Structure (SMILES),TGI [µM]
1,C#CC1(O)C(COP(=O)(O)OC(COCCCCCCCCCCCCCCCCCC)COP(=O)(O)OCC2OC(n3cc(C)c(=O)[nH]c3=O)CC2N=[N+]=[N-])OC(n2ccc(N)nc2=O)C1O (configuration not stated),> 77
2,CCOc1ccccc1/C=C(/C#N)C(N)=O,> 100
3,COc1cccc(-c2nnc3c(-c4ccccc4)nc4ccccc4n23)c1,17.3
4,c1ccc(COC2NCCN2Cc2ccccc2)cc1 (configuration not stated),> 100
5,NC(=O)C1CCCNC1 (configuration not stated),> 100

# System: TK-10 renal
# Assay: DTP human tumour cell line panel, 48 h
row,Structure (SMILES),TGI [µM]
1,C#CC1(O)C(COP(=O)(O)OC(COCCCCCCCCCCCCCCCCCC)COP(=O)(O)OCC2OC(n3cc(C)c(=O)[nH]c3=O)CC2N=[N+]=[N-])OC(n2ccc(N)nc2=O)C1O (configuration not stated),10.2
2,CCOc1ccccc1/C=C(/C#N)C(N)=O,> 100
3,COc1cccc(-c2nnc3c(-c4ccccc4)nc4ccccc4n23)c1,> 100
4,c1ccc(COC2NCCN2Cc2ccccc2)cc1 (configuration not stated),> 100
5,NC(=O)C1CCCNC1 (configuration not stated),> 100

# System: U251 CNS
# Assay: DTP human tumour cell line panel, 48 h
row,Structure (SMILES),TGI [µM]
1,C#CC1(O)C(COP(=O)(O)OC(COCCCCCCCCCCCCCCCCCC)COP(=O)(O)OCC2OC(n3cc(C)c(=O)[nH]c3=O)CC2N=[N+]=[N-])OC(n2ccc(N)nc2=O)C1O (configuration not stated),22
2,CCOc1ccccc1/C=C(/C#N)C(N)=O,> 100
3,COc1cccc(-c2nnc3c(-c4ccccc4)nc4ccccc4n23)c1,> 100
4,c1ccc(COC2NCCN2Cc2ccccc2)cc1 (configuration not stated),> 100
5,NC(=O)C1CCCNC1 (configuration not stated),> 100

# System: UACC-257 melanoma
# Assay: DTP human tumour cell line panel, 48 h
row,Structure (SMILES),TGI [µM]
1,C#CC1(O)C(COP(=O)(O)OC(COCCCCCCCCCCCCCCCCCC)COP(=O)(O)OCC2OC(n3cc(C)c(=O)[nH]c3=O)CC2N=[N+]=[N-])OC(n2ccc(N)nc2=O)C1O (configuration not stated),> 77.3
2,CCOc1ccccc1/C=C(/C#N)C(N)=O,> 100
3,COc1cccc(-c2nnc3c(-c4ccccc4)nc4ccccc4n23)c1,> 100
4,c1ccc(COC2NCCN2Cc2ccccc2)cc1 (configuration not stated),> 100

# System: UACC-62 melanoma
# Assay: DTP human tumour cell line panel, 48 h
row,Structure (SMILES),TGI [µM]
1,C#CC1(O)C(COP(=O)(O)OC(COCCCCCCCCCCCCCCCCCC)COP(=O)(O)OCC2OC(n3cc(C)c(=O)[nH]c3=O)CC2N=[N+]=[N-])OC(n2ccc(N)nc2=O)C1O (configuration not stated),18.8
2,CCOc1ccccc1/C=C(/C#N)C(N)=O,> 100
3,COc1cccc(-c2nnc3c(-c4ccccc4)nc4ccccc4n23)c1,> 100
4,c1ccc(COC2NCCN2Cc2ccccc2)cc1 (configuration not stated),> 100
5,NC(=O)C1CCCNC1 (configuration not stated),> 100

# System: UO-31 renal
# Assay: DTP human tumour cell line panel, 48 h
row,Structure (SMILES),TGI [µM]
1,C#CC1(O)C(COP(=O)(O)OC(COCCCCCCCCCCCCCCCCCC)COP(=O)(O)OCC2OC(n3cc(C)c(=O)[nH]c3=O)CC2N=[N+]=[N-])OC(n2ccc(N)nc2=O)C1O (configuration not stated),2.69
2,CCOc1ccccc1/C=C(/C#N)C(N)=O,> 100
3,COc1cccc(-c2nnc3c(-c4ccccc4)nc4ccccc4n23)c1,> 100
4,c1ccc(COC2NCCN2Cc2ccccc2)cc1 (configuration not stated),> 100
5,NC(=O)C1CCCNC1 (configuration not stated),> 100
